In PubChem BioAssay (NCI):
Several values for one entry are separate records, joined by “and”; a condition that tells them apart may be missing. Equal entries are not always repeated.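 Growth conditions: 96-well plates. Treatment: test compound, 48 hours, 5 concentrations. Analysis: linear interpolation between bracketing concentrations; unreached endpoints set to highest concentration. GI50 marks 50% less growth. Definition used: TGI = concentration required for complete inhibition of growth.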

Experiments:
Experiment in all cases: growth of human tumour cells (NCI), 48 h
K-562 leukemia = test system: K-562 leukemia
MDA-MB-435 = test system: MDA-MB-435
A498 renal = test system: A498 renal
SF-539 CNS = test system: SF-539 CNS
HCT-116 colon = test system: HCT-116 colon
NCI/ADR-RES ovarian = test system: NCI/ADR-RES ovarian
HCC-2998 colon = test system: HCC-2998 colon
SK-OV-3 ovarian = test system: SK-OV-3 ovarian
DU-145 prostate = test system: DU-145 prostate
MDA-N = test system: MDA-N
CCRF-CEM leukemia = test system: CCRF-CEM leukemia

Compound	TGI (K-562 leukemia)	TGI (MDA-MB-435)	TGI (A498 renal)	TGI (SF-539 CNS)	TGI (HCT-116 colon)	TGI (NCI/ADR-RES ovarian)	TGI (HCC-2998 colon)	TGI (SK-OV-3 ovarian)	TGI (DU-145 prostate)	TGI (MDA-N)	TGI (CCRF-CEM leukemia)	GI50 (K-562 leukemia)	GI50 (CCRF-CEM leukemia)	GI50 (MDA-MB-435)	GI50 (NCI/ADR-RES ovarian)	GI50 (HCC-2998 colon)	GI50 (DU-145 prostate)	GI50 (MDA-N)	GI50 (SF-539 CNS)	GI50 (HCT-116 colon)
COc1cc2c(cc1OC)CC(N=[N+]=[N-])c1cc(OC)c(OC)cc1/C=C\2 (stereo unspecified)	> 100 µM	> 100 µM	> 100 µM	> 100 µM	> 100 µM	> 100 µM	> 100 µM	> 100 µM	> 100 µM	25.2 µM										
c1ccc(CSc2nc(N3CCOCC3)c3cn[nH]c3n2)cc1	> 100 µM	40 µM	26.1 µM	56.4 µM	> 100 µM	55.6 µM	69.2 µM	> 100 µM	> 100 µM		36 µM									
COc1cccc(-c2cc(=O)c3c(C)ccnc3[nH]2)c1	0.397 µM		> 77.1 µM		> 100 µM		0.27 µM	> 100 µM			0.218 µM									
CC(C)=CCSC1CC2C(CC1(C)O)C2(C)C (stereo unspecified)	80.1 µM and 29.6 µM		31.4 µM and 36.2 µM	32.3 µM and 29.6 µM	33.5 µM and 28.7 µM		3.27 µM and 18.6 µM	28.2 µM and 29.7 µM			> 100 µM and 38.7 µM	28.2 µM and 10.1 µM	26 µM and 12.8 µM							
CCN(CC)C(=S)SS(=O)(=O)c1ccc([N+](=O)[O-])cc1	> 100 µM	54.7 µM	> 100 µM	40 µM		> 100 µM	> 100 µM	> 100 µM	82.4 µM	> 100 µM				23.2 µM	48.3 µM	93.7 µM	27.2 µM	30.2 µM		
COc1ccc(C2S/C(=C\c3ccc(O)cc3)C(=O)N2NC(=O)Cc2ccccc2)cc1 (stereo unspecified)	> 100 µM		> 100 µM	> 100 µM	> 100 µM			> 100 µM			> 100 µM									
COC(=O)c1cc(C#Cc2cc(OC)ccc2OC)ccc1OC	> 100 µM	> 100 µM		> 100 µM	> 100 µM	> 100 µM	> 100 µM	> 100 µM	> 100 µM	> 100 µM	> 100 µM		36.8 µM				43.6 µM		81.1 µM	37.7 µM
CC(C)=CCC/C(C)=C/CC/C(C)=C/CC/C(C)=C/CC/C(C)=C\CC/C(C)=C/CC/C(C)=C/CC/C(C)=C/Cc1cc(O)ccc1O	26.4 µM		3.51 µM	3.19 µM	1.87 µM	1.92 µM	> 48.8 µM	15.6 µM	> 72.9 µM		> 34.9 µM									
O=C(CSCC(=O)N/N=C\c1ccc(-c2ccccc2)cc1)N/N=C\c1ccc(-c2ccccc2)cc1	> 100 µM	46.1 µM		37.9 µM	21.4 µM	> 100 µM		38.9 µM	> 100 µM											
NC(=O)N1N=C2c3ccccc3SC[C@H]2[C@@H]1c1ccccc1	> 100 µM		76.9 µM		28.2 µM		> 100 µM				70.7 µM									
COC(=O)C1C2C=CC(C2)N1[C@@H](C)c1ccccc1 (stereo partly specified)	> 100 µM		> 100 µM	> 100 µM	> 100 µM		> 100 µM	> 100 µM			> 100 µM									
CN1CN(c2ccccc2)C2(CCN(CCc3csc4ccccc34)CC2)C1=O	40.1 µM	31.6 µM		23 µM	23.4 µM	28.1 µM		76.9 µM	54.2 µM		46.6 µM									
CC(=O)NC1=C(C)C(=O)c2c(nc3n2CCC3O)C1=N (stereo unspecified)	> 100 µM		59.6 µM	13.9 µM	6.88 µM		45.7 µM	97.1 µM			> 100 µM									
CC1(C)CC(=O)c2c(nc3ccc4ccccc4c3c2-c2ccc(NC(=O)CCC(=O)Nc3ccc(-c4c5c(nc6ccc7ccccc7c46)CC(C)(C)CC5=O)cc3)cc2)C1	> 100 µM	> 100 µM		> 100 µM	> 100 µM	> 100 µM		> 100 µM	> 100 µM	> 100 µM	> 100 µM									
COc1ccc(CC2NC(=O)/C=C/CC(C(C)C3OC3c3ccccc3)OC(=O)C(CC(C)C)OC(=O)C(C)CNC2=O)cc1Cl (stereo unspecified)	> 0.0416 µM	1.58e-05 µM	3.66e-05 µM	4.43e-05 µM	> 0.1 µM		0.00259 µM	> 0.1 µM	> 0.1 µM											
CN(CCc1ccc(N)cc1)[C@H]1CCCC[C@H]1N1CCCC1	> 100 µM	> 100 µM	> 100 µM		> 100 µM	> 100 µM	> 100 µM	> 100 µM	> 100 µM	> 100 µM										
CCC(CC)n1c(C)nc2c1C(=O)c1ccccc1C2=O	> 100 µM			> 100 µM	77.4 µM		> 100 µM	> 100 µM			> 100 µM									

Compound	TGI (K-562 leukemia)	TGI (MDA-MB-435)	TGI (A498 renal)	TGI (SF-539 CNS)	TGI (HCT-116 colon)	TGI (NCI/ADR-RES ovarian)	TGI (HCC-2998 colon)	TGI (SK-OV-3 ovarian)	TGI (DU-145 prostate)	TGI (MDA-N)	TGI (CCRF-CEM leukemia)	GI50 (K-562 leukemia)	GI50 (CCRF-CEM leukemia)	GI50 (MDA-MB-435)	GI50 (NCI/ADR-RES ovarian)	GI50 (HCC-2998 colon)	GI50 (DU-145 prostate)	GI50 (MDA-N)	GI50 (SF-539 CNS)	GI50 (HCT-116 colon)
CC(=O)OC1c2ccccc2CCCCCCC12OCCO2 (stereo unspecified)	> 100 µM		> 100 µM	> 100 µM	> 100 µM		> 100 µM	> 100 µM			> 100 µM									
C(=C\C(SCc1ccccc1)SCc1ccccc1)/c1ccccc1	> 10 µM		> 10 µM	> 10 µM	> 10 µM	> 10 µM	> 10 µM	> 10 µM	> 10 µM	> 10 µM	> 10 µM									
COc1ccc(C(C#N)NNc2nc(C)cc(=O)[nH]2)cc1OC (stereo unspecified)	> 100 µM			> 100 µM	> 100 µM			> 100 µM			> 100 µM									
CCC1C(c2cc(OC)c(OC)c(OC)c2)c2cc3c(cc2OC1N1CCOCC1)OCO3 (stereo unspecified)					13.4 µM	> 100 µM		23.4 µM	28.9 µM	3.83 µM										
CNC(=O)c1[nH]cnc1/N=N/N(C)N	> 100 µM	> 100 µM	> 100 µM	> 100 µM	> 100 µM	> 100 µM	> 100 µM	> 100 µM	> 100 µM	> 100 µM										
COc1cc2c(c(OC)c1OC)-c1ccc(SC)cc1[C@H](OC(=O)c1ccccc1)CC2	> 100 µM	> 100 µM		0.0841 µM	1.45 µM		11.7 µM	> 100 µM	> 61 µM	0.0222 µM	> 100 µM									
C1=C\CCCCN2C[C@H]3CCCC/C=C\CCCCN4CC[C@@H]([C@H](CCCCCC/1)C4)[C@H](C3)C2		3.8 µM	17.4 µM	3.9 µM	4.41 µM	9.89 µM	2.01 µM	22.8 µM	17.2 µM	3.26 µM										
COc1ccc2c(c1)c1c(n2CCN2CCCCC2)-c2ccccc2CC1	45.9 µM	38.3 µM		27.4 µM	31 µM	33.2 µM	20.7 µM	40.9 µM	> 100 µM		47.4 µM									
Cc1cc2c(c(C=NCc3ccccc3)c1)OC1(C=C2)Oc2ccccc2C(=O)N1C (stereo unspecified)	> 100 µM	78.4 µM	77.6 µM		61.6 µM	48 µM	57.4 µM	> 100 µM	70.4 µM		36.3 µM									
S=C1N=C(Cl)C2(NN1)c1ccccc1-c1ccccc12	> 10 µM		> 10 µM	> 10 µM		> 10 µM	> 10 µM	> 10 µM	> 10 µM	> 10 µM	> 10 µM									
Cc1cn(Cc2ccccc2CCl)c(=O)[nH]c1=O	56 µM	29 µM		24.6 µM	17.9 µM	36.2 µM	28.8 µM	> 100 µM	31.3 µM		> 100 µM									
O=S1C2=C(Cc3ccccc3)C(Cc3ccccc3)=C1CCc1cccc(c1)CC2	> 100 µM	27.5 µM		41 µM	21.5 µM	38.7 µM	27.5 µM	24.3 µM	30.3 µM	30.6 µM	> 100 µM									
Cn1c2ccccc2c(=NNc2ccc(C(=O)O)cc2)c2ccccc21	23.3 µM	34.3 µM		49.9 µM	34.5 µM	57.9 µM	24.9 µM	56.7 µM	58 µM	33.7 µM	40.5 µM									
CC(C)C1CC(O)O[C@@H]([C@@H](C)[C@H]2CC(=O)[C@@H]3[C@@H]4[C@@H](O)[C@H](O)[C@H]5[C@@H](O)[C@H](O)CC[C@]5(C)[C@H]4CC[C@]23C)C1 (stereo partly specified)	> 100 µM			> 100 µM	> 100 µM		> 100 µM	> 100 µM			> 100 µM									
CCOc1cc(NC(C)=O)ccc1C(=O)NN1C(=O)/C(=C/c2cc(OC)c(OC)c(OC)c2)N=C1c1ccccc1	> 100 µM	> 100 µM	> 100 µM	> 100 µM	> 100 µM	> 100 µM	> 100 µM	> 100 µM		> 100 µM	> 100 µM									
CSC1=C(c2ccc(Cl)cc2)SC(N2CCCCC2)N1c1ccc([N+](=O)[O-])cc1 (stereo unspecified)	> 100 µM	> 100 µM	73.2 µM	56.5 µM	62.8 µM	62.3 µM	> 100 µM	81.9 µM		> 100 µM	> 100 µM									
O=C1CCCCc2cccc(O)c21	> 100 µM	> 100 µM	> 100 µM	> 100 µM	> 100 µM	> 100 µM	> 100 µM	> 100 µM	> 100 µM		> 100 µM									
